Experimental data from ChEMBL document CHEMBL4052738, “Design and synthesis of 4-morpholino-6-(1,2,3,6-tetrahydropyridin-4-yl)-N-(3,4,5-trimethoxyphenyl)-1,3,5-triazin-2-amine analogues as tubulin polymerization inhibitors” (Bioorg Med Chem Lett, 2017).
pIC50: −log10 of the molar value. The source made the active and inactive calls. No cut-off for these calls is given here.

What was measured:
HepG2 = test: Antiproliferative activity against human HepG2 cells after 48 hrs by sulforhodamine B assay; format: functional, cell-based; conditions: HepG2, 48 h
HeLa [1] = test: Antiproliferative activity against human HeLa cells after 48 hrs by sulforhodamine B assay; format: functional, cell-based
MCF7 = test: Antiproliferative activity against human MCF7 cells after 48 hrs by sulforhodamine B assay; format: functional, cell-based; conditions: MCF7, 48 h
A549 = test: Antiproliferative activity against human A549 cells after 48 hrs by sulforhodamine B assay; format: functional, cell-based; conditions: A549, 48 h
HeLa [2] = test: Inhibition of microtubule polymerization in human HeLa cells assessed as cell rounding at 1 mM after 24 hrs by DAPI staining-based immunofluorescence assay
HeLa [3] = test: Inhibition of tubulin polymerization in human HeLa cells assessed as increase in soluble tubulin fraction at 1 mM after 24 hrs by immunoblot analysis; format: cell-based
HeLa [4] = test: Inhibition of microtubule polymerization in human HeLa cells assessed as spindle fibres in nucleus at 1 mM after 24 hrs by DAPI staining-based immunofluorescence assay; format: cell-based
HeLa [5] = test: Induction of apoptosis in human HeLa cells assessed as increase in cyclin-B1 levels at 1 mM after 24 hrs by immunoblot analysis; format: functional, cell-based
[6] = Inhibition of porcine tubulin polymerization after 1 hr in presence of GTP; parameters: species or system Sus scrofa
HeLa [7] = test: Inhibition of tubulin polymerization in human HeLa cells assessed as increase in soluble tubulin fraction at 10 mM after 24 hrs by immunoblot analysis; format: cell-based
HeLa [8] = test: Induction of apoptosis in human HeLa cells assessed as increase in cyclin-B1 levels at 10 mM after 24 hrs by immunoblot analysis; format: functional, cell-based
HeLa [9] = test: Inhibition of microtubule polymerization in human HeLa cells assessed as spindle fibres in nucleus at 10 mM after 24 hrs by DAPI staining-based immunofluorescence assay; format: cell-based
HeLa [10] = test: Inhibition of microtubule polymerization in human HeLa cells assessed as cell rounding at 10 mM after 24 hrs by DAPI staining-based immunofluorescence assay

| Compound | pIC50 (HepG2) | pIC50 (HeLa [1]) | pIC50 (MCF7) | pIC50 (A549) | further results |
| --- | --- | --- | --- | --- | --- |
| COc1cc(Nc2nc(C3=CCN(S(=O)(=O)c4ccc(Br)cc4)CC3)nc(N3CCOCC3)n2)cc(OC)c1OC | 4.39 | 4.51 | 4.49 | 4.36 | – |
| CCN1CCN(C(=O)N2CC=C(c3nc(Nc4cc(OC)c(OC)c(OC)c4)nc(N4CCOCC4)n3)CC2)CC1 | 4.34 | 4.40 | 4.52 | 4.36 | – |
| COc1cc(Nc2nc(C3=CCN(C(=O)N4CCCCC4)CC3)nc(N3CCOCC3)n2)cc(OC)c1OC | 4.38 | 4.47 | 4.39 | 4.51 | – |
| COc1ccc(NC(=O)N2CC=C(c3nc(Nc4cc(OC)c(OC)c(OC)c4)nc(N4CCOCC4)n3)CC2)cc1 | 4.36 | 4.39 | 4.58 | 4.34 | – |
| COc1cc(Nc2nc(C3=CCN(C(=O)c4ccc(Br)cc4)CC3)nc(N3CCOCC3)n2)cc(OC)c1OC | 4.45 | 4.39 | 4.40 | 4.47 | – |
| COC(=O)Nc1nc2cc(C(=O)c3cccs3)ccc2[nH]1 [NOCODAZOLE] | 5.96 | 5.80 | 5.82 | – | inhibition (HeLa [2]): Active; inhibition (HeLa [3]): Active; inhibition (HeLa [4]): Active; Activity (HeLa [5]): Active; pIC50 [6]: 6.10 |
| COc1cc(Nc2nc(C3=CCN(C(=O)CC#N)CC3)nc(N3CCOCC3)n2)cc(OC)c1OC | 4.53 | 4.47 | 4.39 | 4.38 | – |
| COc1cc(Nc2nc(C3=CCN(C(=O)C(F)(F)F)CC3)nc(N3CCOCC3)n2)cc(OC)c1OC | 4.30 | 4.37 | 4.32 | 4.54 | – |
| COc1cc(Nc2nc(C3=CCN(S(=O)(=O)c4ccc(Br)s4)CC3)nc(N3CCOCC3)n2)cc(OC)c1OC | 4.55 | 4.40 | 4.51 | 4.54 | – |
| COc1cc(Nc2nc(C3=CCN(C(=O)N4CCN(C)CC4)CC3)nc(N3CCOCC3)n2)cc(OC)c1OC | 4.46 | 4.40 | 4.39 | 4.46 | – |
| COc1cc(Nc2nc(C3=CCN(S(=O)(=O)c4ccc(Cl)cc4)CC3)nc(N3CCOCC3)n2)cc(OC)c1OC | 4.31 | 4.29 | 4.51 | 4.39 | – |
| COc1cc(Nc2nc(C3=CCN(S(=O)(=O)c4ccc(C)cc4)CC3)nc(N3CCOCC3)n2)cc(OC)c1OC | 4.60 | 4.34 | 4.38 | 4.39 | – |
| COc1cc(Nc2nc(C3=CCN(C(=O)N4CCN(c5ccc(C)cc5)CC4)CC3)nc(N3CCOCC3)n2)cc(OC)c1OC | 4.40 | 4.40 | 4.31 | 4.53 | – |
| COc1cc(Nc2nc(C3=CCN(C(=O)c4ccc(Br)cc4O)CC3)nc(N3CCOCC3)n2)cc(OC)c1OC | 4.41 | 4.36 | 4.55 | 4.34 | – |
| COc1cc(Nc2nc(C3=CCN(C(=O)c4ccc(Cl)cc4)CC3)nc(N3CCOCC3)n2)cc(OC)c1OC | 4.39 | 4.46 | 4.42 | 4.36 | – |
| COc1ccc(C(=O)N2CC=C(c3nc(Nc4cc(OC)c(OC)c(OC)c4)nc(N4CCOCC4)n3)CC2)cc1 | 4.51 | 4.37 | 4.49 | 4.48 | – |
| COc1cc(Nc2nc(C3=CCN(C(=O)CS)CC3)nc(N3CCOCC3)n2)cc(OC)c1OC | 4.48 | 4.48 | 4.52 | 4.36 | – |
| COc1cc(Nc2nc(C3=CCN(S(=O)(=O)c4ccc([N+](=O)[O-])cc4)CC3)nc(N3CCOCC3)n2)cc(OC)c1OC | 4.36 | 4.49 | 4.39 | 4.46 | – |
| COc1cc(Nc2nc(C3=CCN(S(=O)(=O)c4ccc(C(F)(F)F)cc4)CC3)nc(N3CCOCC3)n2)cc(OC)c1OC | 4.57 | 4.49 | 4.39 | 4.52 | – |
| COc1cc(Nc2nc(C3=CCN(C(=O)Nc4ccc(F)cc4)CC3)nc(N3CCOCC3)n2)cc(OC)c1OC | 4.54 | 4.40 | 4.59 | 4.34 | – |

| Compound | pIC50 (HepG2) | pIC50 (HeLa [1]) | pIC50 (MCF7) | pIC50 (A549) | further results |
| --- | --- | --- | --- | --- | --- |
| COc1ccc(/C=C\c2cc(OC)c(OC)c(OC)c2)cc1O [COMBRETASTATIN A4] | 5.37 | 5.24 | 5.38 | 5.28 | – |
| COc1cc(Nc2nc(C3=CCN(S(C)(=O)=O)CC3)nc(N3CCOCC3)n2)cc(OC)c1OC | 4.55 | 4.49 | 4.54 | 4.41 | – |
| COc1cc(Nc2nc(C3=CCN(C(=O)Nc4ccc(F)c(F)c4)CC3)nc(N3CCOCC3)n2)cc(OC)c1OC | 4.46 | 4.52 | 4.51 | 4.29 | – |
| COc1cc(Nc2nc(C3=CCN(C(=O)c4cnccn4)CC3)nc(N3CCOCC3)n2)cc(OC)c1OC | 4.40 | 4.32 | 4.40 | 4.38 | – |
| COc1cc(Nc2nc(C3=CCN(S(=O)(=O)c4ccc(F)cc4)CC3)nc(N3CCOCC3)n2)cc(OC)c1OC | 4.52 | 4.30 | 4.53 | 4.34 | – |
| COc1cc(Nc2nc(C3=CCN(C(=O)Nc4ccncc4)CC3)nc(N3CCOCC3)n2)cc(OC)c1OC | 4.30 | 4.47 | 4.41 | 4.49 | – |
| COc1cc(Nc2nc(C3=CCN(C(C)=O)CC3)nc(N3CCOCC3)n2)cc(OC)c1OC | 4.30 | 4.34 | 4.40 | 4.31 | – |
| COc1cc(Nc2nc(C3=CCN(C(=O)N4CCCC4)CC3)nc(N3CCOCC3)n2)cc(OC)c1OC | 4.41 | 4.53 | 4.47 | 4.36 | – |
| COc1cc(Nc2nc(C3=CCN(S(=O)(=O)c4ccc(C(C)(C)C)cc4)CC3)nc(N3CCOCC3)n2)cc(OC)c1OC | 4.32 | 4.30 | 4.39 | 4.47 | – |
| COc1cc(Nc2nc(C3=CCN(S(=O)(=O)c4ccc(C(C)=O)cc4)CC3)nc(N3CCOCC3)n2)cc(OC)c1OC | 4.44 | 4.35 | 4.49 | 4.49 | – |
| COc1cc(Nc2nc(C3=CCN(C(=O)c4cccnc4Cl)CC3)nc(N3CCOCC3)n2)cc(OC)c1OC | 4.35 | 4.39 | 4.52 | 4.37 | – |
| COc1ccc(S(=O)(=O)N2CC=C(c3nc(Nc4cc(OC)c(OC)c(OC)c4)nc(N4CCOCC4)n3)CC2)cc1 | 4.51 | 4.32 | 4.30 | 4.46 | – |
| COc1cc(Nc2nc(C3=CCN(C(=O)c4ccc([N+](=O)[O-])o4)CC3)nc(N3CCOCC3)n2)cc(OC)c1OC | 5.02 | 4.91 | 4.93 | 4.98 | inhibition (HeLa [7]): Active; Activity (HeLa [8]): Active; inhibition (HeLa [9]): Active; inhibition (HeLa [10]): Active; pIC50 [6]: 5.28 |
| COc1cc(Nc2nc(C3=CCN(C(=O)N4CCOCC4)CC3)nc(N3CCOCC3)n2)cc(OC)c1OC | 4.54 | 4.34 | 4.42 | 4.49 | – |
| COc1cc(Nc2nc(C3=CCN(C(=O)Nc4ccc(Cl)cc4)CC3)nc(N3CCOCC3)n2)cc(OC)c1OC | 4.46 | 4.51 | 4.54 | 4.44 | – |
| COc1cc(Nc2nc(C3=CCN(S(=O)(=O)c4ccccc4[N+](=O)[O-])CC3)nc(N3CCOCC3)n2)cc(OC)c1OC | 4.29 | 4.49 | 4.30 | 4.47 | – |
| COc1cc(Nc2nc(C3=CCN(C(=O)Cc4c[nH]c5ccccc45)CC3)nc(N3CCOCC3)n2)cc(OC)c1OC | 4.49 | 4.48 | 4.53 | 4.36 | – |
| COc1cc(Nc2nc(C3=CCN(C(=O)c4ccncc4)CC3)nc(N3CCOCC3)n2)cc(OC)c1OC | 4.40 | 4.30 | 4.49 | 4.31 | – |
| COc1cc(Nc2nc(C3=CCN(C(=O)c4ccco4)CC3)nc(N3CCOCC3)n2)cc(OC)c1OC | 4.43 | 4.35 | 4.49 | 4.29 | – |
